Assays:
[1] = target: Serotonin 3 (5-HT3) receptor (Homo sapiens) (UniProt P46098+A5X5Y0+O95264+Q70Z44+Q8WXA8); assay: 5HT3/HU Eurofins SafetyScreen44 (BI); type: protein-complex assay; settings: Compound concentration 10.0 uM
[2] = target: Carbonic anhydrase (Homo sapiens) (UniProt P00918+P43166+P00915+P07451+P23280+O43570+Q9ULX7+Q16790+P22748+Q8N1Q1+Q9Y2D0+P35218); assay: CANHYDRASE Eurofins SafetyScreen44 (BI); type: protein assay; settings: Compound concentration 10.0 uM
[3] = target: Dual specificity mitogen-activated protein kinase kinase 5 (Homo sapiens) (UniProt Q13163); assay: MAP2K5 Invitrogen Lab (UK) kinase screen (BI); settings: Compound concentration 1.0 uM
Chain of Dual specificity mitogen-activated protein kinase kinase 5 (Homo sapiens) (Q13163 whole entry): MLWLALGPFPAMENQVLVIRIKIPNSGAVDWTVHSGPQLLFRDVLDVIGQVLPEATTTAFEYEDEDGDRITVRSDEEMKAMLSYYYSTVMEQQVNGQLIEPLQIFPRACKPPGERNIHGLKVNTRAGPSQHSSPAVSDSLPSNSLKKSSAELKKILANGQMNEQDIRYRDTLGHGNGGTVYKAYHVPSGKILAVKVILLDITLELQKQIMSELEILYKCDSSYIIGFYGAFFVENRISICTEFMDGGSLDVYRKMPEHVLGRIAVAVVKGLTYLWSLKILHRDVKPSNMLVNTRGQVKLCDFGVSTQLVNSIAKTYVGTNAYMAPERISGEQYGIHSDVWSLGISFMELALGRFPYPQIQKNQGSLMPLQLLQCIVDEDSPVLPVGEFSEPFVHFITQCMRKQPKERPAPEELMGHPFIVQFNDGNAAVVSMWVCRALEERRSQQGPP

[4] = target: Mitogen-activated protein kinase 15 (Homo sapiens) (UniProt Q8TD08); assay: MAPK15 (ERK7) Invitrogen Lab (UK) kinase screen (BI); settings: Compound concentration 1.0 uM
[5] = target: Casein kinase I isoform gamma-1 (Homo sapiens) (UniProt Q9HCP0); assay: CSNK1G1 Invitrogen Lab (UK) kinase screen (BI); settings: Compound concentration 1.0 uM
Chain of Casein kinase I isoform gamma-1 (Homo sapiens) (Q9HCP0 whole entry, looked up, canonical isoform): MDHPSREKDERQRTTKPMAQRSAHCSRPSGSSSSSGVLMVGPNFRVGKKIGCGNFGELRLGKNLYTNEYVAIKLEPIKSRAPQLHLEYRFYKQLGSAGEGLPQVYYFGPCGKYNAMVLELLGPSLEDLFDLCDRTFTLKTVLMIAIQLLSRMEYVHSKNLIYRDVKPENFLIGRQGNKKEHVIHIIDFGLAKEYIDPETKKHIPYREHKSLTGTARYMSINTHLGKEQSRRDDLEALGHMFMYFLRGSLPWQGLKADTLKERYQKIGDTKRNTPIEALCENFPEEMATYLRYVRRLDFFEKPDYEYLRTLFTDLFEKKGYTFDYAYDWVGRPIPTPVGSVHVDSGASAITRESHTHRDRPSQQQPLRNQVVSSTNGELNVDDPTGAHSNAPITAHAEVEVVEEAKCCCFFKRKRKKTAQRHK

[6] = target: Phosphatidylinositol 4,5-bisphosphate 3-kinase catalytic subunit gamma isoform (Homo sapiens) (UniProt P48736); assay: PIK3CG Invitrogen Lab (UK) kinase screen (BI); settings: Compound concentration 1.0 uM
[7] = target: GABA-A receptor; anion channel (Rattus norvegicus) (UniProt O09028+P15431+P18506+P18508+P19969+P20236+P23574+P23576+P28471+P28473+P30191+P62813+P63079+P63138+Q91ZM7+Q9ES14); settings: Compound concentration 10.0 uM
[8] = target: Alpha-1D adrenergic receptor (Homo sapiens) (UniProt P25100); settings: Compound concentration 10.0 uM
Chain of Alpha-1D adrenergic receptor (Homo sapiens) (P25100 whole entry): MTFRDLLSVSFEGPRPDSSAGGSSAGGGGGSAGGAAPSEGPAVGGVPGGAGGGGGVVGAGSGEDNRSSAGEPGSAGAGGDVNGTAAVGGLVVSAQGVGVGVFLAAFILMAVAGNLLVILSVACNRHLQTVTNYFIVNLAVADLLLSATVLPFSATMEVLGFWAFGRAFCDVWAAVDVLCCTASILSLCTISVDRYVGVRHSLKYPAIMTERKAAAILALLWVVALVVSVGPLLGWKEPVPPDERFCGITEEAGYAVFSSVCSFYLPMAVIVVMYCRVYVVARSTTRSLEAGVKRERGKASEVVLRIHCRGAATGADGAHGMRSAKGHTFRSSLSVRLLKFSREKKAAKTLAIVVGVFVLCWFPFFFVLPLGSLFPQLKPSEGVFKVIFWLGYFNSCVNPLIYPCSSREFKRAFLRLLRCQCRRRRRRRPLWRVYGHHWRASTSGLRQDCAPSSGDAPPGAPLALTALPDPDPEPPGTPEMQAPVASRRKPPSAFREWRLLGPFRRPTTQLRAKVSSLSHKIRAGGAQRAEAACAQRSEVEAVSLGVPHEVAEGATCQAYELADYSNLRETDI

[9] = target: B1 bradykinin receptor (Homo sapiens) (UniProt P46663)
Chain of B1 bradykinin receptor (Homo sapiens) (P46663 whole entry, the tested form may be a part): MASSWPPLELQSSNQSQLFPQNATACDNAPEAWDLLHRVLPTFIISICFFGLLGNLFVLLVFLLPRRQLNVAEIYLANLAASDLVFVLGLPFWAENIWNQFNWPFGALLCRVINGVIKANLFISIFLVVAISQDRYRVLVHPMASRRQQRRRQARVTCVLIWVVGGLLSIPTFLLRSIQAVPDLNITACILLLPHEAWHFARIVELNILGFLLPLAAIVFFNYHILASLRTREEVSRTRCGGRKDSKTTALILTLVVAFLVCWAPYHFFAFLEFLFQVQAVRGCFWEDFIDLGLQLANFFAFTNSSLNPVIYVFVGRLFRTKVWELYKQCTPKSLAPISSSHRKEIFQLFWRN

[10] = target: Ankyrin repeat and protein kinase domain-containing protein 1 (Homo sapiens) (UniProt Q8NFD2); settings: Compound concentration 1.0 uM
[11] = target: T1, Cyclin-G-associated kinase (Homo sapiens) (UniProt O14976)
T1 sequence (whole entry): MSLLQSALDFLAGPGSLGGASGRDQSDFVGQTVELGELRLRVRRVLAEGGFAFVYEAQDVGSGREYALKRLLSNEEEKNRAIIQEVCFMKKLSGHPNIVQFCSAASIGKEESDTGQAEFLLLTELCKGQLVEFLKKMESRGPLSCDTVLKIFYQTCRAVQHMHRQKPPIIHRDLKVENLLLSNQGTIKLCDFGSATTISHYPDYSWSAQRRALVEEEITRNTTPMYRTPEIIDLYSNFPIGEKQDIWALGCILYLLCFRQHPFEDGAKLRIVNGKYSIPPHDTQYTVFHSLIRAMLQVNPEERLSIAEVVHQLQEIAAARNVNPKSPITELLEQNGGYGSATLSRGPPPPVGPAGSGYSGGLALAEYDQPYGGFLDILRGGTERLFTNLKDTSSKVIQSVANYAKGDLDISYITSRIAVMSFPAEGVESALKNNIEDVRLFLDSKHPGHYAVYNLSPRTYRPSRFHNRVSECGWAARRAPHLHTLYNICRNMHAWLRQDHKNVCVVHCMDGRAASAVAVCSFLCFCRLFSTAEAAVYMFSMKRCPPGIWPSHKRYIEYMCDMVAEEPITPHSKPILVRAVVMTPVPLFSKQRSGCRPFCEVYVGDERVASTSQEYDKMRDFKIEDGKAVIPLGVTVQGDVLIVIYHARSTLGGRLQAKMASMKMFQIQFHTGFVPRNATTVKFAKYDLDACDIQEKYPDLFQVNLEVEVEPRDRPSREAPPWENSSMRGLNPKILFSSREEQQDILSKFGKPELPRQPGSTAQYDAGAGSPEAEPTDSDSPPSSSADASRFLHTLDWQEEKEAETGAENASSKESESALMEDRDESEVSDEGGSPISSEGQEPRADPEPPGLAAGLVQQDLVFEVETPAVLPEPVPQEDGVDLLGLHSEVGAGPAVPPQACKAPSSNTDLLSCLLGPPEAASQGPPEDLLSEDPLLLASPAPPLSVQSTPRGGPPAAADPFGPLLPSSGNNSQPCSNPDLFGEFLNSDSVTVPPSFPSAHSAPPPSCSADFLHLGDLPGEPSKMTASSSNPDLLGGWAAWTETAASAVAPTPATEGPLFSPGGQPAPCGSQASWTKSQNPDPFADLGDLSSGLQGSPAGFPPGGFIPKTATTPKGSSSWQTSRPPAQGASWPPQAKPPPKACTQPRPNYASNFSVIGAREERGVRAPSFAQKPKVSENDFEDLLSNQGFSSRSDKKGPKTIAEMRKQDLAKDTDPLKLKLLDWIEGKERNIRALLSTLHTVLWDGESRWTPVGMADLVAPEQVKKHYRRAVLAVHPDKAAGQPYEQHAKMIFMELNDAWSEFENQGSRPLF

[12] = target: Serine/threonine-protein kinase ICK (Homo sapiens) (UniProt Q9UPZ9); settings: Compound concentration 1.0 uM
Chain of Serine/threonine-protein kinase ICK (Homo sapiens) (Q9UPZ9 whole entry): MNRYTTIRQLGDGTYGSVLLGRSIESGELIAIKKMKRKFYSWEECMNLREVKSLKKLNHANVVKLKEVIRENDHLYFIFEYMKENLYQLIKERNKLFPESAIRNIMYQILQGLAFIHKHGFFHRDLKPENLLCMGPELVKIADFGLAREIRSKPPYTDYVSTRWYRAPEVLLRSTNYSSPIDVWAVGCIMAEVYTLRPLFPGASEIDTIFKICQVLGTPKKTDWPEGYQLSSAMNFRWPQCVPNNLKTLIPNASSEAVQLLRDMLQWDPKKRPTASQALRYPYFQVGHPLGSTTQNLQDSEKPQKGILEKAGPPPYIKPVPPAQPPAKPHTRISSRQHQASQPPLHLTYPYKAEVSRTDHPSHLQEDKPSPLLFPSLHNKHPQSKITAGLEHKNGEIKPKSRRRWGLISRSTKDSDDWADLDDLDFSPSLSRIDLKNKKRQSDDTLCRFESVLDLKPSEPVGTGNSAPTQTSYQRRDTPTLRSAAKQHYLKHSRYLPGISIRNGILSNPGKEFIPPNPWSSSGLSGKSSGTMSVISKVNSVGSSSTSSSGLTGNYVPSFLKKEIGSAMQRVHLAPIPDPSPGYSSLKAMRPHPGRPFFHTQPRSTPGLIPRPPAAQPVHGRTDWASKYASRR

[13] = target: Mitogen-activated protein kinase kinase kinase kinase 3 (Homo sapiens) (UniProt Q8IVH8); settings: Compound concentration 1.0 uM
Chain of Mitogen-activated protein kinase kinase kinase kinase 3 (Homo sapiens) (Q8IVH8 whole entry): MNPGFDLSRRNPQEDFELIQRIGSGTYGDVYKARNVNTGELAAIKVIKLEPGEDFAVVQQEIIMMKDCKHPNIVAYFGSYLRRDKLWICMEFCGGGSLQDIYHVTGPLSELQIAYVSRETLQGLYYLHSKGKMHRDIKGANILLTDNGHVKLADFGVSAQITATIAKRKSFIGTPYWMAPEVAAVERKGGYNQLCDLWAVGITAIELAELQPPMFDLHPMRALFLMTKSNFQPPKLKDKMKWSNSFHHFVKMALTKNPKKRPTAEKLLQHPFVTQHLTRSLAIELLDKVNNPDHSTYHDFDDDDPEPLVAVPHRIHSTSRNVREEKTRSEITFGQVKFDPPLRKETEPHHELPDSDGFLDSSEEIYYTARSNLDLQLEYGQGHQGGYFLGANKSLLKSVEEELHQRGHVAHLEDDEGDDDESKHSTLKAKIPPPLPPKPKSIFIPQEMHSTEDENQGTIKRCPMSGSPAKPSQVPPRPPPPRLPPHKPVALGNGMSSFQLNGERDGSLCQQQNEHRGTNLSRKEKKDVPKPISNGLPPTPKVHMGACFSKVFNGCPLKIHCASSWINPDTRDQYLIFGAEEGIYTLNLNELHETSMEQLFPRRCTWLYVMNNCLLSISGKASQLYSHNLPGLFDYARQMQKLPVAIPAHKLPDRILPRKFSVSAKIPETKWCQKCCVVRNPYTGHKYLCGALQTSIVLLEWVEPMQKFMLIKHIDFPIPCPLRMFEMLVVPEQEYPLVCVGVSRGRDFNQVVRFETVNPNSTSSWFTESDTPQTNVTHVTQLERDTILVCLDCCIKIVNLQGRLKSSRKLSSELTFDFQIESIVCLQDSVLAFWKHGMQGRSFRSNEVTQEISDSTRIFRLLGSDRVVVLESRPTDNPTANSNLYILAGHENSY

[14] = target: Serine/threonine-protein kinase VRK2 (Homo sapiens) (UniProt Q86Y07); settings: Compound concentration 1.0 uM
[15] = target: Bone morphogenetic protein receptor type-1A (Homo sapiens) (UniProt P36894); settings: Compound concentration 1.0 uM
[16] = target: Myotonin-protein kinase (Homo sapiens) (UniProt Q09013); settings: Compound concentration 1.0 uM
[17] = target: Ephrin type-A receptor 7 (Homo sapiens) (UniProt Q15375); settings: Compound concentration 1.0 uM
[18] = target: Inhibitor of nuclear factor kappa-B kinase subunit beta (Homo sapiens) (UniProt O14920)
Chain of Inhibitor of nuclear factor kappa-B kinase subunit beta (Homo sapiens) (O14920 whole entry): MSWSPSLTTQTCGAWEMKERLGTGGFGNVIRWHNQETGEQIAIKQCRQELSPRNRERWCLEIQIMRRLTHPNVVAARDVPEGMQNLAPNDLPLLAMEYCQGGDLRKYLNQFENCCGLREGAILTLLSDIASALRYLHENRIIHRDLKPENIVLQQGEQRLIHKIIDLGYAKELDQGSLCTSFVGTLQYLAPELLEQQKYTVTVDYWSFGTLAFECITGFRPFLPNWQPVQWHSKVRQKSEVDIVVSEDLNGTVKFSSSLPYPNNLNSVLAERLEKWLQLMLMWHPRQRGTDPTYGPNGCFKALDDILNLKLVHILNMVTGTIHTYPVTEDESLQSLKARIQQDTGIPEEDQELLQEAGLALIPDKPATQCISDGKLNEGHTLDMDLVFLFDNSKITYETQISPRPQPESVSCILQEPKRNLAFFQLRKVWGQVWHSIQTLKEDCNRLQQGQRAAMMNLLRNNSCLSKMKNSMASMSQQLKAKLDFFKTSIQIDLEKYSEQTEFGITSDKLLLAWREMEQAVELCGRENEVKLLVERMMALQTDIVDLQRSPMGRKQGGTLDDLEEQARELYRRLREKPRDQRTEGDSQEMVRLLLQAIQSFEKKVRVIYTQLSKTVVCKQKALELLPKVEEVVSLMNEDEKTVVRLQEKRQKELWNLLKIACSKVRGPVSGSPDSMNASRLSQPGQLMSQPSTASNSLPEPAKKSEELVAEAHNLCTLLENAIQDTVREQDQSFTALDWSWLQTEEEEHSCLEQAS

[19] = target: Mitogen-activated protein kinase 12 (Homo sapiens) (UniProt P53778); settings: Compound concentration 1.0 uM
[20] = target: Macrophage-stimulating protein receptor (Homo sapiens) (UniProt Q04912); settings: Compound concentration 1.0 uM
[21] = target: Serine/threonine-protein kinase Nek6 (Homo sapiens) (UniProt Q9HC98); settings: Compound concentration 1.0 uM
[22] = target: Protein kinase C beta type (Homo sapiens) (UniProt P05771); settings: Compound concentration 1.0 uM
Chain of Protein kinase C beta type (Homo sapiens) (P05771 2-671 limits assumed): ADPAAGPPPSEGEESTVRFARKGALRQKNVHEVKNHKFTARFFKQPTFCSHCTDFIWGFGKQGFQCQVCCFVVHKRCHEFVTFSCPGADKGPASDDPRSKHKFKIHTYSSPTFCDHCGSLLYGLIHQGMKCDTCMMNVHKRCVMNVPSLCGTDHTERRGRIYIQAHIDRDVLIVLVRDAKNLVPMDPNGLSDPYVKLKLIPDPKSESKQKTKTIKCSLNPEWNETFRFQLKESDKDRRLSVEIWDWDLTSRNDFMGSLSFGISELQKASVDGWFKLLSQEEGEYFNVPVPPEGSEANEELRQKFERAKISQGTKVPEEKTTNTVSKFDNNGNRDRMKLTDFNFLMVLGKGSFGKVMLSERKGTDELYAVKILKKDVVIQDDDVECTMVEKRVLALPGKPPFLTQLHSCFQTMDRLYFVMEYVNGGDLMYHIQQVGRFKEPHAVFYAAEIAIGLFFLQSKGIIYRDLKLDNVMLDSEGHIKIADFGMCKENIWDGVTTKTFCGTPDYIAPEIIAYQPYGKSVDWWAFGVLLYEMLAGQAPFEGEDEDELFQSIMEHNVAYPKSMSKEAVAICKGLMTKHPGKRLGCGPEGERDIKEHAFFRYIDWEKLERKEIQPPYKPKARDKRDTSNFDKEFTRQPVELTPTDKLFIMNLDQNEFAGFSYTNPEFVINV

[23] = target: Protein-tyrosine kinase 6 (Homo sapiens) (UniProt Q13882); settings: Compound concentration 1.0 uM

## CCC(F)(F)c1cc(N2CCC(S(C)(=O)=O)CC2)nc2sc(C(N)=O)c(N)c12 [BI-605906]
[1]
  residual activity: 84%
[2]
  residual activity: 86%
[3]
  residual activity: 107%
[4]
  residual activity: 103%
[5]
  residual activity: 102%
[6]
  residual activity: 102%
[7]
  inhibition: 8.92%
[8]
  inhibition: 36.7%
[9]; Compound concentration 10.0 uM
  residual activity: 93%
[9]; Compound concentration 100.0 uM
  residual activity: 108%
[10]
  residual activity: 95%
[11]; Compound concentration 0.001 uM
  residual activity: 99%
[11]; Compound concentration 1.0 uM
  residual activity: 7%
[11]; Compound concentration 20.0 uM
  residual activity: 6%
[12]
  residual activity: 96%
[13]
  residual activity: 93%
[14]
  residual activity: 82%
[15]
  residual activity: 100%
[16]
  residual activity: 95%
[17]
  residual activity: 87%
[18]; Compound concentration 1.0 uM
  residual activity: 13.5%
[18]; Compound concentration 10.0 uM
  residual activity: -1.5%
[19]
  residual activity: 99%
[20]
  residual activity: 105%
[21]
  residual activity: 95%
[22]
  residual activity: 99%
[23]
  residual activity: 98%

Source: ChEMBL document CHEMBL4800722, “Data for DCP probe BI 605906” (2021)
